Laboratory results published in patent US10562878B2, “Cycloalkylamines as monoamine reuptake inhibitors” (Sunovion Pharmaceuticals Inc., priority 2006, dated 2020).
pIC50: −log10 of the molar value.

Key:
[1] = target: rat dopamine reuptake transporter (Rattus norvegicus (Rat), UniProt P23977); assay: Dopamine functional uptake assay, rat striatal synaptosomes; assay type: biochemical; conditions: read-out: rDAT IC50
[2] = target: human dopamine transporter (Homo sapiens (Human), UniProt Q01959); assay: Dopamine functional uptake assay, recombinant human transporter in CHO-K1 or HEK293 cells; assay type: cell-based; conditions: read-out: hDAT IC50
[3] = target: rat serotonin (5-HT) reuptake transporter (Rattus norvegicus (Rat), UniProt P31652); assay: Serotonin functional uptake assay, rat synaptosomes; assay type: biochemical; conditions: read-out: rSERT IC50
[4] = in vivo; cited from earlier work
[5] = target: human serotonin transporter (Homo sapiens (Human), UniProt P31645); assay: Serotonin functional uptake assay, recombinant human transporter in HEK-293 cells; assay type: cell-based; conditions: Human serotonin transporter uptake; read-out: hSERT IC50
[6] = target: human norepinephrine reuptake transporter (Homo sapiens (Human), UniProt P23975); conditions: cited from earlier work

Chain of human dopamine transporter (Q01959 whole entry): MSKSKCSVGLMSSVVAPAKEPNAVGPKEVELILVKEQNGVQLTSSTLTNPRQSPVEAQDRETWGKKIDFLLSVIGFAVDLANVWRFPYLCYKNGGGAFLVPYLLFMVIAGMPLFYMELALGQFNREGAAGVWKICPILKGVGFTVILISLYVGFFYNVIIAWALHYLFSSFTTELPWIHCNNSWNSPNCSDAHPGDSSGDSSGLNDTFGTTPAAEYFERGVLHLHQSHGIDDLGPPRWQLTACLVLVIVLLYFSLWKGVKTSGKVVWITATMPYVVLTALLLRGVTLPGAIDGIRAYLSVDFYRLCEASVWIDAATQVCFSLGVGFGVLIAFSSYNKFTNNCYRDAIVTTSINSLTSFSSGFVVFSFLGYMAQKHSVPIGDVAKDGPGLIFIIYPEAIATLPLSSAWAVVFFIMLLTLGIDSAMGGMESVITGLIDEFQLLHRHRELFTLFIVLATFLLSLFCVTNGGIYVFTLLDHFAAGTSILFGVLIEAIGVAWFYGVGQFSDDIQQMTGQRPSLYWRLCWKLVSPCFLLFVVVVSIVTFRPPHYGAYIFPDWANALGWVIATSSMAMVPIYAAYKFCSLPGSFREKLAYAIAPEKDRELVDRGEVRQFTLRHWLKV
Chain of human serotonin transporter (P31645 whole entry): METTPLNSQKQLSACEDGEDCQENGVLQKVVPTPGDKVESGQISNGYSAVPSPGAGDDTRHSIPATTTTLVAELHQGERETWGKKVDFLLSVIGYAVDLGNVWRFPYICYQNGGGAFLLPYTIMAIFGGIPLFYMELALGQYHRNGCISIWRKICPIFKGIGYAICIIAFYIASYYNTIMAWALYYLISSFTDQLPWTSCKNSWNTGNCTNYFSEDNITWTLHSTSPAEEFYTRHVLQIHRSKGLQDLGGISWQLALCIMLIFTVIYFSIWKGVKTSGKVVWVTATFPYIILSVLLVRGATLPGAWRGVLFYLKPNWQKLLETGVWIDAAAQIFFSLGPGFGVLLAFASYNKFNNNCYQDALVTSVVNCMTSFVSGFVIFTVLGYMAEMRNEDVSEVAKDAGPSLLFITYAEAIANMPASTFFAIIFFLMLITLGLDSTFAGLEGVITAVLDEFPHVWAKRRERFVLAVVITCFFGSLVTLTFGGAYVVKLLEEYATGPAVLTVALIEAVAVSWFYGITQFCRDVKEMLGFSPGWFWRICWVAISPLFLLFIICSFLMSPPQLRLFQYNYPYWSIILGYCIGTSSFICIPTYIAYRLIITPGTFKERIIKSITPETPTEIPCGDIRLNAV

SMILES	pIC50 [1]	pIC50 [2]	pIC50 [3]	immobility in the tail suspension test [4]	pIC50 [5]	reported potency (IC50 or Ki), inhibition of human norepinephrine reuptake transporter [6]
CN(C)C[C@]1(c2ccc(Cl)c(Cl)c2)CCC[C@H](O)C1 (single isomer, unassigned) [190 E2, Cis-3-(3,4-dichlorophenyl)-3-((dimethylamino)methyl)cyclohexanol]	7.35	8.52	6.92	–	–	–
Clc1ccc(C23CNCC2C3)cc1Cl (single isomer, unassigned) [DOV 21,947, H-1-(3,4-dichlorophenyl)-3-azabicyclo[3.1.0]hexane]	–	–	–	dose-dependent reduction in immobility	–	–
CN(C)C[C@]1(c2ccc(Cl)c(Cl)c2)CC[C@H](O)CC1 [Compound 288, (1s,4s)-4-(3,4-dichlorophenyl)-4-((dimethylamino)methyl)-cyclohexanol]	6.43	7.66	7.17	–	7.08	–
COC(=O)C(c1ccccc1)C1CCCCN1 (stereo not drawn) [methylphenidate]	–	–	–	–	–	38 nM
